Assay results as given in patent US9694016B2 (Novartis AG, priority 2013, dated 2017).

The compounds below were run against b-Raf (V600E) (Homo sapiens (Human), UniProt P15056, V600E). Conditions: read-out: b-Raf IC-50; AlphaScreen, 60 min pre-incubation, reaction 3 hours at room temperature.
b-Raf (V600E), sequence (P15056 whole entry V600E): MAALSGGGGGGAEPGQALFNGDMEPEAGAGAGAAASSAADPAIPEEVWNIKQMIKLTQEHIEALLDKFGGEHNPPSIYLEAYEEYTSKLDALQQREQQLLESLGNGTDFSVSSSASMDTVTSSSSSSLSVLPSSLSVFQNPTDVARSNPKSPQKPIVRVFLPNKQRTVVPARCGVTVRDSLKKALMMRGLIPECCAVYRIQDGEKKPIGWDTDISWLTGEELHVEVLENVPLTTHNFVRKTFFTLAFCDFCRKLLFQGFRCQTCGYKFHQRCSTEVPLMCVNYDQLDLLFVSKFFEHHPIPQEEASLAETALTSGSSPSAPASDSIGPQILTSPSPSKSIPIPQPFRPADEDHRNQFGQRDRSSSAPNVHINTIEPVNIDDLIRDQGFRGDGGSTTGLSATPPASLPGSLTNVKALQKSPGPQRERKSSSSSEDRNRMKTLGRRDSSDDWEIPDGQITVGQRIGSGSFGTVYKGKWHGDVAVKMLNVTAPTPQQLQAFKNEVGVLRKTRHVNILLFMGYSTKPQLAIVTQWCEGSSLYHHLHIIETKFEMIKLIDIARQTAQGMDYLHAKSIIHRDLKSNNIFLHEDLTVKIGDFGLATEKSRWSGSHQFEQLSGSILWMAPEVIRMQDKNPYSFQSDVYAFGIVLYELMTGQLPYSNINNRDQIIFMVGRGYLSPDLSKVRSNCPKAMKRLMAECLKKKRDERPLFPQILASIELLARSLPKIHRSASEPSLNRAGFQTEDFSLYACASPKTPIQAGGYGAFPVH

| IC50 [nM] | Compound |
| --- | --- |
| 68.4 | Cc1ncc(NC(=O)c2ccnc(C(C)(C)O)c2)cc1-c1cc(NCCO)nc(N2CCOCC2)c1 [Example 1046, N-(2′-((2-hydroxyethyl)amino)-2-methyl-6′-morpholino-[3,4′-bipyridin]-5-yl)-2-(2-hydroxypropan-2-yl)isonicotinamide] |
| 3.95 | Cc1ccc(NC(=O)c2cnnc(C(F)(F)F)c2)cc1-c1cc(NCCO)nc(N2CCOCC2)c1 [Example 1047, N-(3-(2-((2-hydroxyethyl)amino)-6-morpholinopyridin-4-yl)-4-methylphenyl)-6-(trifluoromethyl)pyridazine-4-carboxamide] |
| 1.55 | Cc1ccc(NC(=O)c2cnnc(C3CC3)c2)cc1-c1cc(NCCO)nc(N2CCOCC2)c1 [Example 1048, 6-cyclopropyl-N-(3-(2-((2-hydroxyethyl)amino)-6-morpholinopyridin-4-yl)-4-methylphenyl)pyridazine-4-carboxamide] |
| 7.69 | Cc1ccc(NC(=O)c2cnnc(C(C)(C)C#N)c2)cc1-c1cc(NCCO)nc(N2CCOCC2)c1 [Example 1049, 6-(2-cyanopropan-2-yl)-N-(3-(2-((2-hydroxyethyl)amino)-6-morpholinopyridin-4-yl)-4-methylphenyl)pyridazine-4-carboxamide] |
| 1.31 | Cc1ccc(NC(=O)c2ccnc(C3(C#N)CC3)c2)cc1-c1cc(NCCO)nc(N2CCOCC2)c1 [Example 1050, 2-(1-cyanocyclopropyl)-N-(3-(2-((2-hydroxyethyl)amino)-6-morpholinopyridin-4-yl)-4-methylphenyl)isonicotinamide] |
| 8.19 | Cc1ncc(NC(=O)c2cnnc(C(F)(F)F)c2)cc1-c1cc(NCCO)nc(N2CCOCC2)c1 [Example 1051, N-(2′-((2-hydroxyethyl)amino)-2-methyl-6′-morpholino-[3,4′-bipyridin]-5-yl)-6-(trifluoromethyl)pyridazine-4-carboxamide] |
| 8.24 | Cc1ncc(NC(=O)c2cnnc(C3CC3)c2)cc1-c1cc(NCCO)nc(N2CCOCC2)c1 [Example 1052, 6-cyclopropyl-N-(2′-((2-hydroxyethyl)amino)-2-methyl-6′-morpholino-[3,4′-bipyridin]-5-yl)pyridazine-4-carboxamide] |
| 0.86 | Cc1ccc(NC(=O)c2ccnc(C(F)F)c2)cc1-c1cc(NCCO)nc(N2CCOCC2)c1 [Example 1053, 2-(difluoromethyl)-N-(3-(2-((2-hydroxyethyl)amino)-6-morpholinopyridin-4-yl)-4-methylphenyl)isonicotinamide] |
| 1.18 | Cc1ccc(NC(=O)c2ccnc(C(F)(F)F)c2)cc1-c1cc(NC2CCOC2)nc(N2CCOCC2)c1 (stereo not shown) [Example 1054, N-(4-methyl-3-(2-morpholino-6-((tetrahydrofuran-3-yl)amino)pyridin-4-yl)phenyl)-2-(trifluoromethyl)isonicotinamide] |
| 1.17 | Cc1ccc(NC(=O)c2ccnc(C(F)(F)F)c2)cc1-c1cc(NCC2CCOC2)nc(N2CCOCC2)c1 (stereo not shown) [Example 1055, N-(4-methyl-3-(2-morpholino-6-(((tetrahydrofuran-3-yl)methyl)amino)pyridin-4-yl)phenyl)-2-(trifluoromethyl)isonicotinamide] |
| 11.2 | Cc1ncc(NC(=O)c2ccnc(C(C)(C)F)c2)cc1-c1cc(NCCO)nc(N2CCOCC2)c1 [Example 1056, 2-(2-fluoropropan-2-yl)-N-(2′-((2-hydroxyethyl)amino)-2-methyl-6′-morpholino-[3,4′-bipyridin]-5-yl)isonicotinamide] |
| 4.12 | Cc1ncc(NC(=O)c2ccnc(C3CC3)c2)cc1-c1cc(NCCO)nc(N2CCOCC2)c1 [Example 1057, 2-cyclopropyl-N-(2′-((2-hydroxyethyl)amino)-2-methyl-6′-morpholino-[3,4′-bipyridin]-5-yl)isonicotinamide] |
| 10.8 | CCC(F)(F)c1cc(C(=O)Nc2cnc(C)c(-c3cc(NCCO)nc(N4CCOCC4)c3)c2)ccn1 [Example 1058, 2-(1,1-difluoropropyl)-N-(2′-((2-hydroxyethyl)amino)-2-methyl-6′-morpholino-[3,4′-bipyridin]-5-yl)isonicotinamide] |
